From ChEMBL document CHEMBL5055665, “Discovery of the Triazolo[1,5-a]Pyrimidine-Based Derivative WS-898 as a Highly Efficacious and Orally Bioavailable ABCB1 Inhibitor Capable of Overcoming Multidrug Resistance” (J Med Chem, 2021)

What was measured:
SW-620 [1] = experiment: Reversal of resistance to paclitaxel-induced cytotoxicity in human SW-620/AD300 cells assessed as reduction in paclitaxel IC50 at 5 uM preincubated for 4 hrs followed by paclitaxel addition and measured after 72 hrs by MTT assay (reference value: 4.23 +/- 0.50 uM); assay type: functional, cell-based
SW-620 [2] = experiment: Reversal of resistance to paclitaxel-induced cytotoxicity in human SW-620/AD300 cells assessed as reversal fold at 5 uM preincubated for 4 hrs followed by paclitaxel addition and measured after 72 hrs by MTT assay relative to paclitaxel; assay type: functional; conditions: time 76 hrs
SW-620 [3] = experiment: cells; conditions: Homo sapiens
SW-620 [4] = experiment: Reversal of resistance to paclitaxel-induced cytotoxicity in human SW-620/AD300 cells assessed as reversal fold at 4 uM preincubated for 4 hrs followed by paclitaxel addition and measured after 72 hrs by MTT assay relative to paclitaxel; assay type: functional; conditions: time 76 hrs
SW-620 [5] = experiment: Reversal of resistance to paclitaxel-induced cytotoxicity in human SW-620/AD300 cells assessed as reduction in paclitaxel IC50 at 2 uM preincubated for 4 hrs followed by paclitaxel addition and measured after 72 hrs by MTT assay (reference value: 4.23 +/- 0.50 uM); assay type: functional, cell-based
SW-620 [6] = experiment: Reversal of resistance to paclitaxel-induced cytotoxicity in human SW-620/AD300 cells assessed as reversal fold at 2 uM preincubated for 4 hrs followed by paclitaxel addition and measured after 72 hrs by MTT assay relative to paclitaxel; assay type: functional; conditions: time 76 hrs
SW-620 [7] = experiment: Reversal of resistance to paclitaxel-induced cytotoxicity in human SW-620/AD300 cells assessed as reversal fold at 1 uM preincubated for 4 hrs followed by paclitaxel addition and measured after 72 hrs by MTT assay relative to paclitaxel; assay type: functional; conditions: time 76 hrs
SW-620 [8] = experiment: Reversal of resistance to paclitaxel-induced cytotoxicity in human SW-620/AD300 cells assessed as reduction in paclitaxel IC50 at 1 uM preincubated for 4 hrs followed by paclitaxel addition and measured after 72 hrs by MTT assay (reference value: 4.23 +/- 0.50 uM); assay type: functional, cell-based
SW-620 [9] = experiment: Reversal of resistance to paclitaxel-induced cytotoxicity in human SW-620/AD300 cells assessed as reversal fold at 10 uM preincubated for 4 hrs followed by paclitaxel addition and measured after 72 hrs by MTT assay relative to paclitaxel; assay type: functional; conditions: time 76 hrs
SW-620 [10] = experiment: Reversal of resistance to paclitaxel-induced cytotoxicity in human SW-620/AD300 cells assessed as reduction in paclitaxel IC50 at 10 uM preincubated for 4 hrs followed by paclitaxel addition and measured after 72 hrs by MTT assay (reference value: 4.23 +/- 0.50 uM); assay type: functional, cell-based

In the case of `Cc1cc(Nc2ccc(C(=O)/C=C/c3ccc4ccccc4c3)cc2)n2nc(SCc3ccccc3Br)nc2n1`, the IC50 (SW-620 [1]) is reported as 420 nM and the “fold change (FC)” value (SW-620 [2]) is reported as 10.07.
With `C#CCSc1nc2nc(C)cc(Nc3ccc(C(=O)/C=C/c4ccc5ccccc5c4)cc3)n2n1` the IC50 (SW-620 [3]) was 870 nM and the “fold change (FC)” value (SW-620 [4]) was 4.86.
`Cc1cc(Nc2ccc(C(=O)/C=C/c3ccc4ccccc4c3)cc2)n2nc(SCc3ccc([N+](=O)[O-])cc3)nc2n1` was tested, and the IC50 (SW-620 [1]) was 1130 nM and the “fold change (FC)” value (SW-620 [2]) was 3.74.
For `Cc1cc(Nc2ccc(C(=O)/C=C/c3ccc4ccccc4c3)cc2)n2nc(SCc3cccc(Br)c3)nc2n1`, the IC50 (SW-620 [1]) was 270 nM and the “fold change (FC)” value (SW-620 [2]) was 15.67.
`Cc1cc(Nc2ccc(C(=O)/C=C/c3ccc4ccccc4c3)cc2)n2nc(SCc3cccc([N+](=O)[O-])c3)nc2n1` was tested, and the IC50 (SW-620 [1]) was 790 nM and the “fold change (FC)” value (SW-620 [2]) was 5.35.
With `COc1ccc(/C=C/C(=O)c2ccc(Nc3cc(C)nc4nc(SCc5nc6ccccc6[nH]5)nn34)cc2)cc1` the IC50 (SW-620 [5]) was 170 nM and the “fold change (FC)” value (SW-620 [6]) was 24.88.
With `Cc1cc(Nc2ccc(C(=O)/C=C/c3ccc(OC(F)(F)F)cc3)cc2)n2nc(SCc3nc4ccccc4[nH]3)nc2n1` the IC50 (SW-620 [5]) was 220 nM and the “fold change (FC)” value (SW-620 [6]) was 19.5.
`Cc1cc(Nc2ccc(C(=O)/C=C/c3ccc(OC(F)(F)F)c(OC(F)(F)F)c3)cc2)n2nc(SCc3nc4ccccc4[nH]3)nc2n1` was tested, and the “fold change (FC)” value (SW-620 [7]) was 35.25 and the IC50 (SW-620 [8]) was 120 nM.
With `Cc1cc(Nc2ccc(C(=O)/C=C/c3ccc4ccccc4c3)cc2)n2ncnc2n1` the “fold change (FC)” value (SW-620 [9]) was 5.79 and the IC50 (SW-620 [10]) was 730 nM.
`COc1ccc(CSc2nc3nc(C)cc(Nc4ccc(C(=O)/C=C/c5ccc6ccccc6c5)cc4)n3n2)cc1` was tested, and the IC50 (SW-620 [1]) was 250 nM and the “fold change (FC)” value (SW-620 [2]) was 16.92.
`Cc1cc(Nc2ccc(C(=O)/C=C/c3ccc4ccccc4c3)cc2)n2nc(SC(=O)c3csc4ccc(Cl)cc34)nc2n1` was tested, and the IC50 (SW-620 [5]) was 35 nM and the “fold change (FC)” value (SW-620 [6]) was 120.86.
In the case of `Cc1cc(Nc2ccc(C(=O)/C=C/c3ccccc3F)cc2)n2nc(SCc3nc4ccccc4[nH]3)nc2n1`, the IC50 (SW-620 [5]) is reported as 250 nM and the “fold change (FC)” value (SW-620 [6]) is reported as 16.92.
`Cc1cc(Nc2ccc(C(=O)/C=C/c3ccc4ccccc4c3)cc2)n2nc(SCc3ccccc3C(F)(F)F)nc2n1` was tested, and the IC50 (SW-620 [1]) was 1240 nM and the “fold change (FC)” value (SW-620 [2]) was 3.41.
In the case of `Cc1cc(Nc2ccc(C(=O)/C=C/c3ccc4ccccc4c3)cc2)n2nc(SCc3ccccc3[N+](=O)[O-])nc2n1`, the IC50 (SW-620 [1]) is reported as 960 nM and the “fold change (FC)” value (SW-620 [2]) is reported as 4.36.
`Cc1cc(Nc2ccc(C(=O)/C=C/c3ccc4c(c3)OC(F)(F)O4)cc2)n2nc(SCc3nc4ccccc4[nH]3)nc2n1` was tested, and the “fold change (FC)” value (SW-620 [7]) was 17.63 and the IC50 (SW-620 [8]) was 240 nM.
`O[C@@H](COc1cccc2ncccc12)CN1CCN([C@@H]2c3ccccc3[C@@H]3[C@H](c4ccccc42)C3(F)F)CC1` [ZOSUQUIDAR] was tested, and the IC50 (SW-620 [5]) was 59 nM and the “fold change (FC)” value (SW-620 [6]) was 71.1.
For `Cc1cc(Nc2ccc(C(=O)/C=C/c3ccc4ccccc4c3)cc2)n2nc(SCc3ccc(Br)cc3)nc2n1`, the IC50 (SW-620 [1]) was 370 nM and the “fold change (FC)” value (SW-620 [2]) was 11.43.
In the case of `Cc1cc(Nc2ccc(C(=O)/C=C/c3ccc(Cl)cc3)cc2)n2nc(SCc3nc4ccccc4[nH]3)nc2n1`, the IC50 (SW-620 [5]) is reported as 230 nM and the “fold change (FC)” value (SW-620 [6]) is reported as 18.39.
`Cc1cc(Nc2ccc(C(=O)/C=C/c3ccc4ccccc4c3)cc2)n2nc(SCc3ccc(C(F)(F)F)cc3)nc2n1` was tested, and the “fold change (FC)” value (SW-620 [9]) was 2.92 and the IC50 (SW-620 [10]) was 1450 nM.
In the case of `Cc1cc(Nc2ccc(C(=O)/C=C/c3ccc4ccccc4c3)cc2)n2nc(SCc3ccccc3)nc2n1`, the IC50 (SW-620 [1]) is reported as 300 nM and the “fold change (FC)” value (SW-620 [2]) is reported as 14.1.
With `Cc1cc(Nc2ccc(C(=O)/C=C/c3ccc(Br)cn3)cc2)n2nc(SCc3nc4ccccc4[nH]3)nc2n1` the “fold change (FC)” value (SW-620 [7]) was 39.09 and the IC50 (SW-620 [8]) was 110 nM.
In the case of `Cc1cc(Nc2ccc(C(=O)/C=C/c3cccc(F)c3)cc2)n2nc(SCc3nc4ccccc4[nH]3)nc2n1`, the IC50 (SW-620 [5]) is reported as 590 nM and the “fold change (FC)” value (SW-620 [6]) is reported as 7.17.
With `Cc1cc(Nc2ccc(C(=O)/C=C/c3ccc(F)cc3)cc2)n2nc(SCc3nc4ccccc4[nH]3)nc2n1` the IC50 (SW-620 [5]) was 85 nM and the “fold change (FC)” value (SW-620 [6]) was 49.8.
For `O=C(/C=C/c1ccc2ccccc2c1)c1ccc(Nc2cc(-c3ccccc3)nc3ncnn23)cc1`, the “fold change (FC)” value (SW-620 [9]) was 5.35 and the IC50 (SW-620 [10]) was 790 nM.
With `Cc1ccc(CSc2nc3nc(C)cc(Nc4ccc(C(=O)/C=C/c5ccc6ccccc6c5)cc4)n3n2)cc1` the IC50 (SW-620 [1]) was 880 nM and the “fold change (FC)” value (SW-620 [2]) was 4.81.
With `Cc1cc(Nc2ccc(C(=O)/C=C/c3ccc4ccccc4c3)cc2)n2nc(SCc3cccc(C(F)(F)F)c3)nc2n1` the IC50 (SW-620 [1]) was 2070 nM and the “fold change (FC)” value (SW-620 [2]) was 2.04.
`Cc1cc(Nc2ccc(C(=O)/C=C/c3ccc4ccccc4c3)cc2)n2nc(SCC(=O)c3ccccc3)nc2n1` was tested, and the IC50 (SW-620 [5]) was 190 nM and the “fold change (FC)” value (SW-620 [6]) was 22.26.
For `Cc1cc(Nc2ccc(C(=O)/C=C/c3ccc(-n4cccn4)cc3)cc2)n2nc(SCc3nc4ccccc4[nH]3)nc2n1`, the IC50 (SW-620 [5]) was 340 nM and the “fold change (FC)” value (SW-620 [6]) was 12.44.
With `Cc1cc(Nc2ccc(C(=O)/C=C/c3ccc4ccccc4c3)cc2)n2nc(SCc3ccc(F)cc3)nc2n1` the IC50 (SW-620 [1]) was 320 nM and the “fold change (FC)” value (SW-620 [2]) was 13.22.
For `Cc1cc(Nc2ccc(C(=O)/C=C/c3ccc4ccccc4c3)cc2)n2nc(SCc3c(Cl)cccc3Cl)nc2n1`, the IC50 (SW-620 [3]) was 690 nM and the “fold change (FC)” value (SW-620 [4]) was 6.13.
With `Cc1cc(Nc2ccc(C(=O)/C=C/c3ccccc3)cc2)n2nc(SCc3nc4ccccc4[nH]3)nc2n1` the IC50 (SW-620 [5]) was 130 nM and the “fold change (FC)” value (SW-620 [6]) was 32.54.
For `Cc1cc(Nc2ccc(C(=O)/C=C/c3ccc4ccccc4c3)cc2)n2nc(SCc3ccc(Cl)cc3)nc2n1`, the IC50 (SW-620 [1]) was 570 nM and the “fold change (FC)” value (SW-620 [2]) was 7.42.
`Cc1cc(Nc2ccc(C(=O)/C=C/c3ccc4ccccc4c3)cc2)n2nc(SCc3cccc4ccccc34)nc2n1` was tested, and the IC50 (SW-620 [5]) was 68 nM and the “fold change (FC)” value (SW-620 [6]) was 62.21.
With `Cc1cc(Nc2ccc(C(=O)/C=C/c3ccccc3Cl)cc2)n2nc(SCc3nc4ccccc4[nH]3)nc2n1` the IC50 (SW-620 [5]) was 680 nM and the “fold change (FC)” value (SW-620 [6]) was 6.22.
`COc1cc(OC)c(/C=C/C(=O)c2ccc(Nc3cc(C)nc4nc(SCc5nc6ccccc6[nH]5)nn34)cc2)c(OC)c1` was tested, and the “fold change (FC)” value (SW-620 [7]) was 16.27 and the IC50 (SW-620 [8]) was 260 nM.
`COc1ccc(/C=C/C(=O)c2ccc(Nc3cc(C)nc4nc(SCc5nc6ccccc6[nH]5)nn34)cc2)cc1F` was tested, and the IC50 (SW-620 [5]) was 140 nM and the “fold change (FC)” value (SW-620 [6]) was 30.21.
In the case of `Cc1cc(Nc2ccc(C(=O)/C=C/c3ccc(Br)cc3)cc2)n2nc(SCc3nc4ccccc4[nH]3)nc2n1`, the IC50 (SW-620 [5]) is reported as 290 nM and the “fold change (FC)” value (SW-620 [6]) is reported as 14.59.
For `Cc1cc(Nc2ccc(C(=O)/C=C/c3cccs3)cc2)n2nc(SCc3nc4ccccc4[nH]3)nc2n1`, the IC50 (SW-620 [5]) was 820 nM and the “fold change (FC)” value (SW-620 [6]) was 5.15.
For `Cc1cc(Nc2ccc(C(=O)/C=C/c3cccc(Br)n3)cc2)n2nc(SCc3nc4ccccc4[nH]3)nc2n1`, the “fold change (FC)” value (SW-620 [7]) was 72.93 and the IC50 (SW-620 [8]) was 58 nM.
`Cc1ccc(/C=C/C(=O)c2ccc(Nc3cc(C)nc4nc(SCc5nc6ccccc6[nH]5)nn34)cc2)cc1` was tested, and the IC50 (SW-620 [5]) was 1520 nM and the “fold change (FC)” value (SW-620 [6]) was 2.78.
In the case of `CCCSc1nc2nc(C)cc(Nc3ccc(C(=O)/C=C/c4ccc5ccccc5c4)cc3)n2n1`, the “fold change (FC)” value (SW-620 [9]) is reported as 3.95 and the IC50 (SW-620 [10]) is reported as 1070 nM.
In the case of `C=CCSc1nc2nc(C)cc(Nc3ccc(C(=O)/C=C/c4ccc5ccccc5c4)cc3)n2n1`, the “fold change (FC)” value (SW-620 [9]) is reported as 4.6 and the IC50 (SW-620 [10]) is reported as 920 nM.
With `COc1cc(/C=C/C(=O)c2ccc(Nc3cc(C)nc4nc(SCc5nc6ccccc6[nH]5)nn34)cc2)cc(OC)c1OC` the “fold change (FC)” value (SW-620 [7]) was 56.4 and the IC50 (SW-620 [8]) was 75 nM.
In the case of `Cc1cc(Nc2ccc(C(=O)/C=C/c3cccc(Cl)c3)cc2)n2nc(SCc3nc4ccccc4[nH]3)nc2n1`, the IC50 (SW-620 [5]) is reported as 400 nM and the “fold change (FC)” value (SW-620 [6]) is reported as 10.58.
For `Cc1cc(Nc2ccc(C(=O)/C=C/c3ccc(C(F)(F)F)cc3)cc2)n2nc(SCc3nc4ccccc4[nH]3)nc2n1`, the IC50 (SW-620 [5]) was 1850 nM and the “fold change (FC)” value (SW-620 [6]) was 2.29.
